Reference: publication PMC3685885 (Toxicology and applied pharmacology, 2013)
Where “and” joins values, the source holds several entries; their conditions need not be identical. Identical values can stand only once. Like-named read-outs stand apart in the source and are kept apart here.

Legend:
human CB2Rs [1] = biological target: T1, human CB2Rs (Homo sapiens, UniProt P34972); assay: [35S]GTPγS binding; format: biochemical; conditions: CHO-hCB2 membranes; for Intrinsic activity at CB2Rs, G-protein activation: agonists at 10 µM compared to CP-55,940; for CB2R Efficacy (EMAX) G-protein Activation: 10 µM, [35S]GTPγS binding, mean ± SEM
[2] = biological target: human mu-opioid receptors (Homo sapiens, UniProt P35372); assay: [35S]GTPγS binding; format: biochemical; conditions: 10 µM, membranes not expressing hCB2Rs
human CB2Rs [3] = biological target: T1, human CB2Rs; assay: [3H]CP-55,940 competition receptor binding in CHO-hCB2 membranes
human CB2Rs [4] = biological target: T1, human CB2Rs; assay: Inhibition of forskolin-stimulated adenylyl cyclase; format: cell-based; conditions: for CB2R Efficacy (EMAX) AC-Inhibition: 10 µM; for Potency to regulate AC-activity relative to the parent compound: IC50 metabolite versus parent; for Intrinsic activity at CB2Rs, AC-inhibition: 10 µM compared to CP-55,940; for FRO for 50% AC-Inhibition: fractional CB2R occupancy at AC-IC50, FRO = [DRUG] / (Ki + [DRUG])
[5] = intact CHO-hCB2 cells, mean ± SEM
[6] = read-out: CB2R Affinity (Ki), [3H]CP-55,940 0.2 nM, CHO-hCB2 membranes, mean ± SEM
[7] = read-out: Potency for AC-Inhibition (IC50), intact CHO-hCB2 cells, 30 µM forskolin, mean ± SEM

T1 sequence (P34972 whole entry): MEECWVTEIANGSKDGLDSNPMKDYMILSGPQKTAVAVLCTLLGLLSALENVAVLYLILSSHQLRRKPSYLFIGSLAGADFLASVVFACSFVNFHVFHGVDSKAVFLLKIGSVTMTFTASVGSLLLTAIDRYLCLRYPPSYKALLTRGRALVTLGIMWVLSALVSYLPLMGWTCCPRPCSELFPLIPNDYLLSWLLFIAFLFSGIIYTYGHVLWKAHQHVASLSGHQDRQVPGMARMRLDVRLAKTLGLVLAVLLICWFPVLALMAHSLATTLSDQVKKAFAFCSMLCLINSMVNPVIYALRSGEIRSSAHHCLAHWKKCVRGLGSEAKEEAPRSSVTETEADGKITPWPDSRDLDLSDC
human mu-opioid receptors, sequence (P35372 whole entry): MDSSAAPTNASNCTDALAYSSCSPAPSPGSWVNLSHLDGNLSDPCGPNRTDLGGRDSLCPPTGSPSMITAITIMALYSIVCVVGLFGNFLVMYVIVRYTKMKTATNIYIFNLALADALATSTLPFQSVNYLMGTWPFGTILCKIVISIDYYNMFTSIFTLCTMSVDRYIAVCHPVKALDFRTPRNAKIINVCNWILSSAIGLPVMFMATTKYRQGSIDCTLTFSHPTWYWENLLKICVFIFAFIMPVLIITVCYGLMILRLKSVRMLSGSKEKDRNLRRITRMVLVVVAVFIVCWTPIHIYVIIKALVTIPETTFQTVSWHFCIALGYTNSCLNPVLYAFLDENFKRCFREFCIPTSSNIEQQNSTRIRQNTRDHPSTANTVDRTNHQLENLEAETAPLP

Row | Molecule | Intrinsic activity at CB2Rs, G-protein activation (human CB2Rs [1]) | CB2R Efficacy (EMAX) AC-Inhibition (human CB2Rs [4]; [5]) | CB2R Efficacy (EMAX) G-protein Activation (human CB2Rs [1]) | Ki (human CB2Rs [3]; [6]) [nM] | also measured
1 | COc1ccc(C(=O)c2c(C)n(CCN3CCOCC3)c3cc(I)ccc23)cc1 [AM-630, reference compound] | acted as inverse agonists |  |  |  | 
2 | CCCCCOc1c(OC)ccc2cc(C(=O)NCc3ccc4c(c3)OCO4)c(=O)[nH]c12 [JTE-907, reference compound] | acted as inverse agonists |  |  |  | 
3 | CCCCCn1cc(C(=O)c2cccc3ccccc23)c2ccccc21 [JWH-018, 1-pentyl-3-(1-naphthoyl)indole] |  | 59.3 ± 4.0 (4) % Inhibition | 60.3 ± 11.4 (7) fmole/mg |  | Effect on G-protein activity in CHO-hMOR membranes [2]: failed to significantly alter G-protein activity; Ki (human CB2Rs [3]): 5.6 ± 2.4 nM; IC50 (human CB2Rs [4]): 3.6 ± 2.2 nM
4 | O=C(c1cccc2ccccc12)c1cn(CCCCCO)c2ccccc12 [JWH-018-M5] |  | 53.5 ± 4.6 (4) % Inhibition | 38.4 ± 8.5 (5) fmole/mg | 47.4 ± 10.1 | Potency to regulate AC-activity relative to the parent compound (human CB2Rs [4]): ~5 fold; Intrinsic activity at CB2Rs, AC-inhibition (human CB2Rs [4]; intact CHO-hCB2 cells): partial CB2R agonists; IC50 (human CB2Rs [4]; [7]): 17.7 ± 5.5 nM
5 | O=C(O)CCCCn1cc(C(=O)c2cccc3ccccc23)c2ccccc21 [JWH-018-M6] |  |  |  | > 10000 | CB2R affinity (human CB2Rs [3]; CHO-hCB2 membranes): lack affinity for CB2Rs
6 | CCCCn1cc(C(=O)c2cccc3ccccc23)c2ccccc21 [JWH-073, 1-butyl-3-(1-naphthoyl)indole] |  | 62.6 ± 2.7 (3) % Inhibition | 40.1 ± 4.2 (3) fmole/mg |  | Effect on G-protein activity in CHO-hMOR membranes [2]: failed to significantly alter G-protein activity; IC50 (human CB2Rs [4]): 16.9 ± 1.9 nM; FRO for 50% AC-Inhibition (human CB2Rs [4]): 62.5% and 62.5 ± 3.0 (5) %; Intrinsic activity at CB2Rs, AC-inhibition (human CB2Rs [4]; intact CHO-hCB2 cells): full agonists
7 | O=C(c1cccc2ccccc12)c1cn(CCCCO)c2ccccc12 [JWH-073-M5] |  | 54.2 ± 5.9 (4) % Inhibition | 31.0 ± 1.0 (3) fmole/mg | 96 ± 7.1 | Potency to regulate AC-activity relative to the parent compound (human CB2Rs [4]): equipotent; FRO for 50% AC-Inhibition (human CB2Rs [4]): 12.1% and 12.1 ± 1.6 (3) %; IC50 (human CB2Rs [4]; [7]): 13.3 ± 2 nM
8 | O=C(O)CCCn1cc(C(=O)c2cccc3ccccc23)c2ccccc21 [JWH-073-M6] |  |  |  | > 10000 | CB2R affinity (human CB2Rs [3]; CHO-hCB2 membranes): lack affinity for CB2Rs
9 | SR-144528 [reference compound] | acted as inverse agonists |  |  |  | 
